In PMC3700763, “First human dose-escalation study with remogliflozin etabonate, a selective inhibitor of the sodium-glucose transporter 2 (SGLT2), in healthy subjects and in subjects with type 2 diabetes mellitus” (BMC Pharmacology & Toxicology, 2013):

Legend:
[1] = Urine beta-2 microglobulin (exploratory renal toxicity biomarker), T2DM subjects; type: in vivo, human; conditions: one T2DM subject
Method: Urine beta-2 microglobulin levels, an exploratory biomarker that was measured as a potential early indicator of renal toxicity, were within the normal range at both baseline and after treatment for all subjects except for two subjects with diabetes.

[2] = Adverse events after single oral doses, healthy subjects (Part A); type: in vivo, human; conditions: for Blood creatine phosphokinase increased (adverse events reported by >1 subject in total) / Diarrhea (drug-related adverse events) / Dizziness (drug-related adverse events) / Headache (adverse events reported by >1 subject in total) / Headache (drug-related adverse events) / Hot flush (drug-related adverse events) / At least one adverse event: healthy subjects; for At least one adverse event: n = 8
Method: This double-blind, randomized, placebo-controlled, single escalating-dose crossover study was conducted in two parts: Part A consisted of a randomized, dose-escalation in healthy subjects; Part B was of similar design, but conducted in subjects with T2DM and included an evaluation of pharmacodynamics using a 50 g oral glucose tolerance test (OGTT).
Ten healthy subjects were evaluated in 5 study sessions, each separated by approximately 2 weeks. At each study session, subjects received either an oral dose of remogliflozin etabonate or placebo after an overnight fast. Remogliflozin etabonate doses were 20 mg, 50 mg, 150 mg, 500 mg and 1000 mg. Over the course of participation in the study, each subject received 4 of the 5 active remogliflozin etabonate doses and 1 dose of placebo (4:1 active to placebo ratio per treatment period). The available safety and PK results from each dosing period were evaluated before proceeding to the next dose level.
All subjects were admitted to the unit two nights prior to receiving study drug to establish baseline safety parameters and fluid intake levels over a 36 h period. Subjects remained in the unit for at least 24 h after doses were administered for monitoring of clinical laboratory parameters exploratory biomarkers, vital signs, ECGs and adverse events. While confined to the clinical research unit, all subjects received meals standardized with respect to calories, fat, protein, carbohydrate, and sodium content; however, detailed dietary information was not captured in this study. In Part A, subjects were dosed following an overnight fast; lunch and dinner were provided at 4 and 10 h after dosing, respectively. Fifteen minutes after dosing in each treatment period in Part B, a fasting OGTT was performed using 50 g glucose (administered as 50 g Glucola™). A 50 g glucose load was chosen since the OGTT was being performed in subjects already known to have diabetes. The glucose drink was consumed by subjects within approximately 5 minutes. Blood samples for the measurement of glucose, insulin, and intact glucagon-like peptide 1 (GLP-1) were collected for 24 hours following dose administration. Provided that there were no safety or tolerability concerns, subjects were released from the clinic on day 2 of each treatment period until their return for the next treatment or follow-up period. Each subject was involved in the study for approximately 8 weeks (from screening to follow-up).

[3] = Fluid balance, T2DM subjects; type: in vivo, human; conditions: mean (SD)
Method: Urine samples were collected at pre-dose, and over a series of intervals (0–2, 2–4, 4–6, 6–8, 8–12 and 12–24 h post-dose) for the analysis of creatinine, glucose and electrolytes (Na, K and Cl). All fluid intake was recorded, as well as urine volume, over the 24 hours before and after dosing in each treatment period. Urine was tested for protein on the first morning void of day -1 and 24 h after dosing.

[4] = rats; cited from earlier work
[5] = Plasma glucose, healthy subjects; type: in vivo, human; conditions: mean, very similar between placebo and remogliflozin etabonate periods
Method: Blood samples for glucose were taken at 0 (pre-dose), and 1, 2, 4, 8 and 12 h after dosing in each treatment period (Part A). For Part B, blood samples for glucose, insulin and GLP-1 were taken at check-in on day -2, and at 0 h (pre-dose), and 0.5, 1, 1.5, 2, 4 h (prior to lunch), 4.5, 5, 6, 8, 10, 12 and 24 h after dosing on day 1 of each treatment period.
For glucose, plasma was analyzed using a YSI 2300 Glucose Analyzer (Yellow Springs International Life Sciences, Yellow Springs, OH, USA). For insulin, plasma was rapidly prepared and frozen at -70°C until analyzed by LabCorp (San Diego, CA, USA) using a chemiluminescent immunometric assay method (Siemen’s Immulite 2000 analyzer with Immulite Insulin Kit L2KIN2).

For `CCOC(=O)OC[C@H]1O[C@@H](Oc2nn(C(C)C)c(C)c2Cc2ccc(OC(C)C)cc2)[C@H](O)[C@@H](O)[C@@H]1O` [Remogliflozin etabonate, remogliflozin etabonate], the “Time for drug-related beta-2 microglobulin elevation to return to normal” value ([1]; 500 mg) was no more than 4 days, the “Urine beta-2 microglobulin, elevation” value ([1]; 11 days after 500 mg, attributed by investigator to other concomitant disease) was 2.5 µg/mL and the “Urine beta-2 microglobulin, drug-related elevation” value ([1]; day 1 after 500 mg, normal <0.3 μg/mL) was 1.62 µg/mL. The Tolerability ([2]; all subjects, single oral doses 20-1000 mg, no deaths, serious adverse events or withdrawals) was “generally well-tolerated”, the “Blood creatine phosphokinase increased (adverse events reported by >1 subject in total)” value (shortened to “Blood creatine phosphokinase increased”) ([2]; 20 mg single oral dose) was 0 n (%) and the “Diarrhea (drug-related adverse events)” value ([2]; 20 mg single oral dose) was 1 (13) n (%). The “Dizziness (drug-related adverse events)” value ([2]; 20 mg single oral dose) was 0 n (%), the “Headache (adverse events reported by >1 subject in total)” value ([2]; 20 mg single oral dose) was 1 (13) n (%) and the “Headache (drug-related adverse events)” value ([2]; 20 mg single oral dose) was 1 (13) n (%). For the same compound, the “Hot flush (drug-related adverse events)” value ([2]; 20 mg single oral dose) was 0 n (%), the “At least one adverse event” value ([2]; 20 mg single oral dose) was 2 (25) n (%) and the “Blood creatine phosphokinase increased” value ([2]; 50 mg single oral dose) was 0 n (%). The “Diarrhea (drug-related adverse events)” value ([2]; 50 mg single oral dose) was 0 n (%), the “Dizziness (drug-related adverse events)” value ([2]; 50 mg single oral dose) was 0 n (%) and the “Headache (adverse events reported by >1 subject in total)” value ([2]; 50 mg single oral dose) was 1 (13) n (%). For the same compound, the “Headache (drug-related adverse events)” value ([2]; 50 mg single oral dose) was 1 (13) n (%), the “Hot flush (drug-related adverse events)” value ([2]; 50 mg single oral dose) was 0 n (%) and the “At least one adverse event” value ([2]; 50 mg single oral dose) was 3 (38) n (%). The “Blood creatine phosphokinase increased” value ([2]; 150 mg single oral dose) was 0 n (%), the “Diarrhea (drug-related adverse events)” value ([2]; 150 mg single oral dose) was 0 n (%) and the “Dizziness (drug-related adverse events)” value ([2]; 150 mg single oral dose) was 0 n (%). For the same compound, the “Headache (adverse events reported by >1 subject in total)” value ([2]; 150 mg single oral dose) was 0 n (%), the “Headache (drug-related adverse events)” value ([2]; 150 mg single oral dose) was 0 n (%) and the “Hot flush (drug-related adverse events)” value ([2]; 150 mg single oral dose) was 0 n (%). The “At least one adverse event” value ([2]; 150 mg single oral dose) was 1 (13) n (%), the “Blood creatine phosphokinase increased” value ([2]; 500 mg single oral dose) was 1 (13) n (%) and the “Diarrhea (drug-related adverse events)” value ([2]; 500 mg single oral dose) was 0 n (%). For the same compound, the “Dizziness (drug-related adverse events)” value ([2]; 500 mg single oral dose) was 0 n (%), the “Headache (adverse events reported by >1 subject in total)” value ([2]; 500 mg single oral dose) was 2 (25) n (%) and the “Headache (drug-related adverse events)” value ([2]; 500 mg single oral dose) was 0 n (%). The “Hot flush (drug-related adverse events)” value ([2]; 500 mg single oral dose) was 0 n (%), the “At least one adverse event” value ([2]; 500 mg single oral dose) was 3 (38) n (%) and the “Blood creatine phosphokinase increased” value ([2]; 1000 mg single oral dose) was 0 n (%). The “Diarrhea (drug-related adverse events)” value ([2]; 1000 mg single oral dose) was 0 n (%), the “Dizziness (drug-related adverse events)” value ([2]; 1000 mg single oral dose) was 1 (13) n (%) and the “Headache (adverse events reported by >1 subject in total)” value ([2]; 1000 mg single oral dose) was 1 (13) n (%). For the same compound, the “Headache (drug-related adverse events)” value ([2]; 1000 mg single oral dose) was 1 (13) n (%), the “Hot flush (drug-related adverse events)” value ([2]; 1000 mg single oral dose) was 1 (13) n (%) and the “At least one adverse event” value ([2]; 1000 mg single oral dose) was 1 (13) n (%). The “Fluid balance (total fluid intake minus total urine volume)” value ([3]; 0–12 h post-dose, 50 mg) was -78(433) mL, the “Fluid balance (total fluid intake minus total urine volume)” value ([3]; 0–12 h post-dose, 500 mg) was -29 (749) mL and the “Fluid balance (total fluid intake minus total urine volume)” value ([3]; 12–24 h post-dose, 50 mg) was -803 (658) mL. For the same compound, the “Fluid balance (total fluid intake minus total urine volume)” value ([3]; 12–24 h post-dose, 500 mg) was -1088(679) mL, the “Fluid balance (total fluid intake minus total urine volume)” value ([3]; -24 h to pre-dose (baseline before dosing), 50 mg period) was -504 (294) mL and the “Fluid balance (total fluid intake minus total urine volume)” value ([3]; -24 h to pre-dose (baseline before dosing), 500 mg period) was 188 (1879) mL. The “Fluid balance (total fluid intake minus total urine volume)” value ([3]; -24 h to pre-dose (baseline before dosing), 500 mg period, listed as remogliflozin etabonate) was “+188 mL”, the Urinary glucose excretion [4] was “concentration-dependent increase” and the “Plasma glucose AUC 0–4 h” value [5] was “approximately 18 mmol•h/L”. For the same compound, the “Plasma glucose AUC 0–12 h” value [5] was 55 to 59 mmol·h/L.
